Measurements reported in US20190284258A1, “HAEMADIPSA SYLVESTRIS ANTITHROMBOTIC PEPTIDE SYLVESTIN AND USE THEREOF” (priority 2016, published 2019).
Positions of bridges follow the written chain, without caps; N, C: chain ends. No end group written: not given here.

Key:
thrombin = thrombin (Homo sapiens, UniProt P00734); test: Enzyme kinetics, thrombin; assay type: biochemical; details: sample 10 μM
[1] = test system: endogenous coagulation pathway (normal plasma); test: APTT experiment; details: OD 650 nm
Experimental: (§1) The APTT reagent was equilibrated to room temperature and the APTT reagent was mixed by gentle inversion; 50 μL of the reagent, 50 μL of normal plasma and 5 μL of the sample were mixed and incubated in a 37° C. water bath for 3 min; 50 μL of pre-warmed CaCl2 solution was added, mixed immediately; the OD 650 nm was detected with a microplate reader. PT experiment: prothrombin reagent was pre-warmed at 37° C. for 15 min; 50 μL of normal plasma and 5 μL of the sample were incubated in a 37° C. water bath for 3 min; 100 μL of pre-warmed prothrombin reagent was added, mixed immediately; OD 650 nm was detected with a microplate reader.

FXa = FXa (Homo sapiens, UniProt P00742); test: Enzyme kinetics, FXa; assay type: biochemical; details: sample 10 μM
[2] = Isoelectric focusing electrophoresis; assay type: physicochemical
Experimental: 3.3 The purity of the purified Haemadipsa sylvestris antithrombotic peptide was determined by HPLC, the molecular weight was determined by fast atom bombardment mass spectrometry, the isoelectric point was determined by isoelectric focusing electrophoresis, and the amino acid sequence was determined by automatic amino acid sequencer.

[3] = test system: cerebral ischemia and reperfusion injury; test: Acute cerebral ischemic intraluminal thread model; assay type: in vivo, Kunming mice; details: 1, 3, 5 mg/kg i.v. tail vein; 1 h ischemia, assessed at 24 h
tail thrombosis = test: Carrageenan-induced rat tail thrombosis model; assay type: in vivo, Kunming mice; details: for effect on tail thrombosis (average length of thrombus) compared with control group: each time point 12, 24, 36, 48 h, Sylvestin 2 and 4 mg/kg, heparin sodium 500 U/mouse, t-test p<0.05
Experimental: [Worded in the source for another organism; this organism is reported under the same test.] Kunming mice were used as experimental animals, body weight 25 to 30 g (provided by the Experimental Animal Center of Kunming Medical College). After one week of housing, they were randomly divided into groups (n=6), half male and half female. One group was a physiological saline control group, the sample groups were Sylvestin synthesized in Example 2 at a dose of 2 mg/kg and 4 mg/kg, respective, and the positive control was given heparin sodium (Beijing Dingguo Changsheng Biotechnology Co., Ltd.), 500 U/mouse. 30 minutes after tail vein administration, carrageenan (carrageenan, type I, Sigma, dissolved in physiological saline to a concentration of 1%) was injected from the abdomen of the mice at a dose of 60 mg/kg, since the thrombosis rate was >90% in a low temperature environment, the housing temperature was set at 17.5° C. After 12, 24, 36, and 48 h, the average length of thrombus was determined according to the color change of the tail skin. Referring to FIG. 1, the average length of thrombus in each group increased with time. […] Data processing was Graphpad Prime 5, data mean±SD, t-test (*p<0.05).

FXIIa = target: T1, FXIIa (Homo sapiens, UniProt P00748); test: Enzyme kinetics, chromogenic substrate, FXIIa; assay type: biochemical; details: sample 10 μM
T1 sequence (P00748 373-615 limits assumed): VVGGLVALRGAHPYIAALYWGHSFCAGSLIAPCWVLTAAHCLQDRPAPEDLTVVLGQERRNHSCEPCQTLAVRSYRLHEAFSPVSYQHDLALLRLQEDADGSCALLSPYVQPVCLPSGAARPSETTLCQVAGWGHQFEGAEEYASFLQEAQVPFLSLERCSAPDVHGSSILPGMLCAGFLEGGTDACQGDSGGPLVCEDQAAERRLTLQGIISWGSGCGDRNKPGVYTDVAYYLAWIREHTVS
Experimental: (§2) In a 96-well plate, 10 μL of the sample and 10 μL of FXIIa with a final concentration of 0.2 μM were mixed in 40 μL of buffer (100 mM NaCl, 50 mM Tris-HCl (pH 8.0), 5 mM CaCl2), allowed to stand at room temperature for 5 min. A mixture of 30 μL of buffer and 10 μL of chromogenic substrate with a final concentration of 0.04 mM was added to each well, the final volume was 100 μL. The kinetics of the coagulation reaction was measured using an Epoch (BioTek) microplate reader and GEN CHS 1.09 software, OD 405 nm, 20 min, with 47 s intervals. The concentration of the sample was 10 μM.

kallikrein = test: Enzyme kinetics, kallikrein; assay type: biochemical
Experimental: [Worded in the source for another target; this target is reported under the same test.] as §2

plasminogen = test: Enzyme kinetics, plasminogen; assay type: biochemical; details: sample 10 μM
normal plasma = test: PT experiment; details: OD 650 nm
Experimental: as §1

FXa, sequence (P00742 235-488 limits assumed): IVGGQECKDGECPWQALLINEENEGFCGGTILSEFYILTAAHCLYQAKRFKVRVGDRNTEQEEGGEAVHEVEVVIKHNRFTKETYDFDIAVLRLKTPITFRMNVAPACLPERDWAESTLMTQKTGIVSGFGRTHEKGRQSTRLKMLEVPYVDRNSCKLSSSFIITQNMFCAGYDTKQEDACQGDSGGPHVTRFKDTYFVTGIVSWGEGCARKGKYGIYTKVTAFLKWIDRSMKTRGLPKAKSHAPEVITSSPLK
FXa, sequence (P00742 41-179 partner limits assumed): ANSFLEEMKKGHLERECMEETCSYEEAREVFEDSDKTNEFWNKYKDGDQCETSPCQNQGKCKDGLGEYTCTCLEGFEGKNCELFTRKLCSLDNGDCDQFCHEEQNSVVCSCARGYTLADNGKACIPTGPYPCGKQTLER

Substance	inhibitory effect on thrombin (thrombin)	effect in APTT experiment [1]	inhibitory effect on FXa (FXa)	isoelectric point [2]	injury caused by cerebral ischemia and reperfusion (Bederson score, ischemic volume) [3]	inhibition rate against thrombus versus dose (tail thrombosis; 2 mg/kg and 4 mg/kg)	inhibition rate against thrombosis over time (tail thrombosis; 12 to 48 h)	change of length of thrombus from 12 h to 24 h (tail thrombosis)	inhibitory effect on thrombosis compared with control group after 48 h (tail thrombosis; 48 h, tail vein)	effect on tail thrombosis (average length of thrombus) compared with control group (tail thrombosis; tail vein)	inhibitory effect on FXIIa (FXIIa)	Ki (kallikrein; read-out: inhibition constant on kallikrein) [nM]	inhibitory effect on kallikrein (kallikrein; sample 10 μM)	inhibitory effect on plasminogen (plasminogen)	effect in PT experiment (normal plasma)
TSEPVCACPKMLFWVCGKDGETYTHPCIAKCHNVEVEHDGKCK (disulfide 6-31, 8-27, 16-42) [Sylvestin]	no inhibitory effect	concentration-dependent effect	no inhibitory effect	6.28	effectively alleviate the injury	increased as concentration increased	decreased over time	increased slightly	significant inhibitory effect	statistically significant	can inhibit	17.8	can inhibit	no inhibitory effect	no effect
heparin sodium [reference compound]								doubled		statistically significant					
